The values below come from patent publication US6043245A, “Tetrahydrofuran antifungal phosphate” (Schering Corporation, priority 1998, dated 2000).

In one data set the test system is Candida species. Description: In vitro antifungal activity against Candida species. The format is cell-based. The protocol:
(§1) The in vitro anti-fungal activities of the compounds of the formulas II, III and IV against forty-one species of Candida, thirty species of Aspergillus and nine species of Cryptococcus are summarized in Table 5. […] This Aspergillus pulmonary infection model in mice was performed in accordance with the procedures of David Loebenberg et al. entitled "In vitro and in vivo activity of Sch 42427, the active enantiomer of the antifungal agent Sch 39304" published in Antimicrobial Agents and Chemotherapy (1992), Vol. 36, pp. 498-501.
(§2) In Vitro Antifungal Activity(mcg/mL)
(§3) ^3 In vitro activity measured in accordance with procedures for NCCLS

For another data set, the system named is Cryptococcus neoformans. In words: In vitro antifungal activity against Cryptococcus neoformans. The format is cell-based. The method, then: as §1, §2, §3
The test system of the next data set is fungal infection. Description: Antifungal activity in in vivo tests in mice. More on the design: species or system mouse. To be noted: for antifungal activity in in vivo tests in mice versus existing antifungal agents: versus itraconazole, fluconazole and azoles of US 5,039,676 and WO 93/09114. The method, then: as §1
The test system of data set [1] is Candida, Aspergillus and Cryptococcus. Description: In vitro antifungal activity, comparison of geometric mean MICs. The format is cell-based. To be noted: comparison among II, III and IV. The method, then: as §1
Another data set has as its system Aspergillus fumigatus. Description: Aspergillus pulmonary infection model in mice. The format is in vivo, mouse; Aspergillus fumigatus. Conditions: 10 mg/kg. The protocol: as §1
A short description of data set [2]: Pharmacokinetic studies in human tissues and serum (metabolism). The format is in vitro ADME.
Another data set deals with Candida albicans. Description: Mice with a systemic Candida albicans infection. The format is in vivo, mouse; Candida albicans. To be noted: 10 mg/kg.
Data set [3] is described as follows: In vivo hydrolysis of prodrug. Conditions: II to III; III to IV. The text has this: The compound of formula II hydrolyzes in vivo to the compound of formula III; III then hydrolyzes in vivo to the compound of formula IV.
The nature of data set [4]: Plasma pharmacokinetics of formula IV in mice after intravenous di-NMG salt. The format is in vivo, mouse (male Charles River). To be noted: for AUC (of formula IV), time zero to 24 hrs: Table 3, mouse plasma, IV 20 mg/kg formula IV equivalent of di-NMG salt. More on the design: AUC (of formula IV), time zero to 24 hrs: unit not given here. The protocol:
Concentrations of the compound of formula IV in pooled mouse^1
plasma (2 mice/pool) following intravenous administration of a 20
mg/kg of the compound of formula IV dose equivalent of the di-NMG
salt of the compound of this invention represented by the formula II in
^1 Male Charles River mice having an average body weight of 18-20 g
mg/kg of compound of formula IV dose equivalent of the di-NMG
salt of the compound of the prior art represented by formula V
PHARMACOKINETIC ("PK") PARAMETERS OF THE
COMPOUND OF FORMULA IV IN MOUSE^1 PLASMA
FOLLOWING INTRAVENOUS ADMINISTRATION OF 20 MG/KG
OF COMPOUND OF FORMULA IV DOSE EQUIVALENT OF THE
DI-NMG SALTS OF THE COMPOUNDS OF FORMULAS II AND V
IN STERILE WATER TO MICE.

The next data set in a line: Water solubility. The format is physicochemical.
The test system of another data set is Aspergillus species. Description: In vitro antifungal activity against Aspergillus species. Conditions: Aspergillus species (n = 30); Espinel-Ingroff's methodology. The format is cell-based. The protocol:
as §1, §2
^2 In vitro activity against Aspergillus measured in accordance with
EspinelIngroff's Methodology

The mark [5] stands for this setting: read-out: G mean MICs (geometric mean MIC).

Like-named read-outs stand apart in the source and are kept apart here.

The MIC is the smallest concentration in the dilution series that meets the test's criterion for growth inhibition. In the case of `CC[C@@H]([C@H](C)OC(=O)CCCOP(=O)(O)O)n1ncn(-c2ccc(N3CCN(c4ccc(OC[C@@H]5CO[C@@](Cn6cncn6)(c6ccc(F)cc6F)C5)cc4)CC3)cc2)c1=O` [Formula II, 5-[[2(S)-[4-[4-[4-[4-[[(R-cis)-5-(2,4-difluorophenyl)-tetrahydro-5-(1H-1,2,4-triazol-1-ylmethyl)-3-furanyl]methoxy]phenyl]-1-piperazinyl]phenyl]-4,5-dihydro-5-oxo-1H-1,2,4-triazol-1-yl]-1(S)-methylbutyl]oxy]-5-oxobutyl phosphate], the MIC with Candida species (setting [5]) is 7.5 µg/mL; with Cryptococcus neoformans (setting [5]), 1.9 µg/mL; in the data set with Cryptococcus neoformans (read-out: MIC Range), 0.125 to 32 µg/mL. In the data set on fungal infection (systemic Candida albicans and pulmonary Aspergillus fumigatus), the “in vivo activity in two mice models” value is on record as “good in vivo activity”. For the same compound, the “in vitro antifungal activity, comparison of geometric mean MICs” value in data set [1] is “much lower”. In addition, the survival in the data set with Aspergillus fumigatus is recorded as 70%. In addition, the metabolism result in data set [2] was “metabolized to the compound of formula IV via the metabolite represented by formula III”. In addition, the “survival at day 9” value in the data set on Candida albicans is 100%. In addition, in [3], the “site of hydrolysis in vivo” value was “primarily in the serum and in tissues (liver, lung and kidney)”.

For the compound `CC[C@@H]([C@H](C)OC(=O)CCCOP(=O)(O)O)n1ncn(-c2ccc(N3CCN(c4ccc(OC[C@@H]5CO[C@@](Cn6cncn6)(c6ccc(F)cc6F)C5)cc4)CC3)cc2)c1=O` [Formula II.2 NMG], the “AUC (of formula IV), time zero to 24 hrs” value in data set [4] is reported as 79.1. Further, in data set [4] (mice, intravenous, in water), the “blood levels of the compound of formula IV” value is “superior blood levels”. Further, the “pharmacokinetic parameters of formula IV versus those from di-NMG salt of formula V” value in [4] (mice, intravenous, side-by-side comparison) was “unexpectedly superior”. The water solubility entry in the data set “Water solubility” is “water soluble”.

For `CC[C@@H]([C@H](C)OC(=O)CCCO)n1ncn(-c2ccc(N3CCN(c4ccc(OC[C@@H]5CO[C@@](Cn6cncn6)(c6ccc(F)cc6F)C5)cc4)CC3)cc2)c1=O` [Formula III, 2(S)-[4-{4-{4-{4-[[(R-Cis)-2-(2,4-difluorophenyl)-tetrahydro-2-(1H-1,2,4-triazol-1-ylmethyl)-4-furanyl]methoxy]phenyl]-1-piperazinyl]phenyl]-4,5-dihydro-5-oxo-1H-1,2,4-triazol-1-yl]-1-(S)-methylbutyl-4-hydroxy-butanoate], the MIC with Candida species (setting [5]) is 0.3 µg/mL; in the data set on Candida species (read-out: MIC Range), 0.0156 to 8 µg/mL; with Cryptococcus neoformans (setting [5]) it was 0.09 µg/mL; in the data set on Cryptococcus neoformans (read-out: MIC Range) it was 0.0156 to 0.5 µg/mL; in the data set with Aspergillus species, 0.0313 to 2 µg/mL. Further, the “antifungal activity in in vivo tests in mice versus existing antifungal agents” value in the data set with fungal infection is listed as “unexpectedly better than that of existing antifungal agents”. Besides, in data set [3], the “site of hydrolysis in vivo” value was “primarily in the serum”.

For `CC[C@@H]([C@H](C)O)n1ncn(-c2ccc(N3CCN(c4ccc(OC[C@@H]5CO[C@@](Cn6cncn6)(c6ccc(F)cc6F)C5)cc4)CC3)cc2)c1=O` [Formula IV, reference compound], the MIC is 0.2 µg/mL in the data set with Candida species (setting [5]); 0.0156 to 8 µg/mL in the data set on Candida species (read-out: MIC Range); 0.04 µg/mL in the data set on Cryptococcus neoformans (setting [5]); 0.015 to 0.5 µg/mL in the data set with Cryptococcus neoformans (read-out: MIC Range); 0.0156 to 1 µg/mL with Aspergillus species. Also, the “antifungal activity in in vivo tests in mice versus existing antifungal agents” value with fungal infection was “unexpectedly better than that of existing antifungal agents”.

In the case of `CC[C@@H]([C@H](C)OC(=O)CCCCOP(=O)(O)O)n1ncn(-c2ccc(N3CCN(c4ccc(OC[C@@H]5CO[C@@](Cn6cncn6)(c6ccc(F)cc6F)C5)cc4)CC3)cc2)c1=O` [Formula V.2 NMG, reference compound], in data set [4], the “AUC (of formula IV), time zero to 24 hrs” value was 36.7.
